Experimental findings from patent publication US5792761A, “Thrombin inhibitors” (Merck & Co., Inc., priority 1997, dated 1998) are described below.

The test system of one assay is human thrombin. The assay is described as follows: In vitro assay for determining proteinase inhibition: human thrombin (sar-PR-pna hydrolysis at 405 nm; Z-GPR-afc for potent inhibitors). It is filed as biochemical. The conditions noted are these: 25° C., pH 7.4; chromogenic substrate. Here is the method:
(§1) In vitro assay for determining proteinase inhibition
(§2) Assays of human a-thrombin and human trypsin were performed at 25° C. in 0.05M TRIS buffer pH 7.4, 0.15M NaCl, 0.1% PEG. Trypsin assays also contained 1 mM CaCl2.
(§3) In certain studies with potent inhibitors (Ki <10 nM) where the degree of inhibition of thrombin was high, a more sensitive activity assay was employed. […] Concentrations of stock solutions of Z-GPR-afc were determined from measurements of absorbance at 380 nm of the 7-amino-4-trifluoromethyl coumarin produced upon complete hydrolysis of an aliquot of the stock solution by thrombin.
(§4) Activity assays were performed by diluting a stock solution of substrate at least tenfold to a final concentration 0.5 Km into a solution containing enzyme or enzyme equilibrated with inhibitor. Times required to achieve equilibration between enzyme and inhibitor were determined in control experiments. Initial velocities of product formation in the absence (Vo) or presence of inhibitor (Vi) were measured. Assuming competitive inhibition, and that unity is negligible compared Km /[S], […] (where [S], [I], and e respectively represent the total concentrations, of substrate, inhibitor and enzyme), the equilibrium constant (Ki) for dissociation of the inhibitor from the enzyme can be obtained from the dependence of Vo /Vi on [I] shown in equation 1.

For another assay, the system named is human trypsin. The assay is described as follows: In vitro assay for determining proteinase inhibition: human trypsin (sar-PR-pna hydrolysis at 405 nm). The following applies: 25° C., pH 7.4, 1 mM CaCl2; chromogenic substrate. In kind it is biochemical. The method, then: as §1, §2, §4
The subject of the next assay is thrombin. The assay is described as follows: More sensitive thrombin activity assay: hydrolysis of fluorogenic substrate Z-GPR-afc (fluorescence at 500 nm). The conditions noted are these: fluorescence at 500 nm (excitation at 400 nm). In kind it is biochemical, human. Here is the method:
as §2, §3, §4

Non-standard residues stand in square brackets, D forms with d. Residues, ends and D or L forms follow the SMILES beside them. *: point of attachment. AFC = O=c1cc(C(F)(F)F)c2ccc(N*)cc2o1; pNA = O=[N+]([O-])c1ccc(N*)cc1; Cbz = O=C(OCc1ccccc1)*; Sar = CNCC(=O)O

In the case of `CNCC(=O)N1CCC[C@H]1C(=O)N[C@@H](CCCNC(=N)N)C(=O)Nc1ccc([N+](=O)[O-])cc1` [sar-PR-pna, sarcosine-Pro-Arg-p-nitroanilide] (H-[Sar]-Pro-Arg-pNA), the values for the Km in the assay with human thrombin and in the assay with human trypsin were 125 µM and 59 µM, respectively.

For `N=C(N)NCCC[C@H](NC(=O)[C@@H]1CCCN1C(=O)CNC(=O)OCc1ccccc1)C(=O)Nc1ccc2c(C(F)(F)F)cc(=O)oc2c1` [Z-GPR-afc, Cbz-Gly-Pro-Arg-7-amino-4-trifluoromethylcoumarin] (Cbz-Gly-Pro-Arg-{AFC}), in the assay with thrombin, the Michaelis-Menten constant (Km) worked out at 27 µM.
